Earlier results in patent US20140371418A1, “BIOLOGICAL SYNTHESIS OF P-AMINOBENZOIC ACID, P-AMINOPHENOL, N-(4-HYDROXYPHENYL)ETHANAMIDE AND DERIVATIVES THEREOF” (pAromatics, LLC, priority 2012, published 2014).

- solubility of PABA in water: 0.072 M and about 10 g/L
Compound: Nc1ccc(C(=O)O)cc1 [PABA, p-aminobenzoic acid]
- inhibition of growth of bacteria and fungi (bacteria and fungi): inhibits growth
